Common to all, as to test: Greenhouse postemergence herbicidal effect (visual injury, 20-22 d)
What all share (assay type): in vivo

The subject of assay [1] is MATCH, Matricaria chamomilla (wild chamomile). The procedure, abridged: (§1)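 Seedlings reach 2nd/3rd true leaf in greenhouse; two- or three-way mixes (pyridine carboxylate with cloquintocet-mexyl, PS-II inhibitor, optional HPPD inhibitor) in 1.25% v/v oil adjuvant are sprayed overhead at 187 L/ha. Plants are sub-irrigated, then injury versus blank controls is rated 0–100% at 20-22 d.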

In assay [2] the test system is VIOTR, Viola tricolor (wild pansy). The procedure, abridged: as §1
Assay [3] relates to GLXMA, Glycine max (soybean). The note with it: for % visual injury, Obs: GLXMA, Compound A 10 g/ha.
For assay [4], the system named is DIGSA, Digitaria sanguinalis (large crabgrass). The note with it: Compound A 10 g/ha, without cloquintocet-mexyl safener.
In assay [5] the test system is POLCO, Polygonum convolvulus (wild buckwheat). The settings on record: POLCO, Compound A 10 g/ha.
In assay [6] the test system is ALOMY, Alopecurus myosuroides (blackgrass).
The test system of assay [7] is SINAR, Sinapis arvensis (wild mustard). The procedure, abridged: as §1
Assay [8] relates to SETFA, Setaria faberi (giant foxtail). The settings on record: SETFA, Compound A 10 g/ha. The procedure, abridged: as §1
In assay [9] the test system is LOLMU, Lolium multiflorum (Italian ryegrass). The settings on record: Compound A 10 g/ha, without cloquintocet-mexyl safener.
Assay [10] relates to BRSNW, Brassica napus (winter rape). The procedure, abridged:
as §1

Where [11] appears, read: without cloquintocet-mexyl safener.

The text below walks through data of patent US20220007644A1, “COMPOSITIONS COMPRISING PYRIDINE CARBOXYLATE HERBICIDES WITH PHOTOSYSTEM II AND OPTIONAL HPPD INHIBITOR HERBICIDES” (Corteva Agriscience LLC, priority 2018, published 2022).

Where “and” joins values, the source holds several entries; their conditions need not be identical. Equal values may be shown once.

As for `N#CCOC(=O)c1nc(-c2ccc3cc[nH]c3c2F)c(F)c(N)c1Cl` [Compound A, cyanomethyl 4-amino-3-chloro-5-fluoro-6-(7-fluoro-1H-indol-6-yl)pyridine-2-carboxylate], the visual injury in assay [1] (7.5 g ae/ha alone) is 20% and 18% and 10%; in [1] (10 g ae/ha alone), 30% and 20%; in assay [2] (7.5 g ae/ha alone), 45%; in assay [2] (10 g ae/ha alone), 15%; in [3] (7.5 g ae/ha alone) it was 80%; in assay [3] (10 g ae/ha alone), 90%. Moreover, the visual injury in assay [6] (7.5 g ae/ha alone) was 0%; in assay [6] (10 g ae/ha alone) it was 0%; in assay [7] (7.5 g ae/ha alone) it was 88% and 85% and 83%; in assay [7] (10 g ae/ha alone), 90% and 92% and 88%; in [10] (7.5 g ae/ha alone), 35% and 63%; in assay [10] (10 g ae/ha alone) it was 43% and 68% and 40%. Also, the “% visual injury, Obs” value in assay [2] (VIOTR, Compound A 10 g/ha, without cloquintocet-mexyl safener) is listed as 15%; in assay [3], 90%; in [3] (setting [11]) it was 85%; in assay [4] it was 8%; in [5], 93%; in [5] (setting [11]) it was 78%. In addition, the “% visual injury, Obs” value is listed as 0% in [6] (ALOMY, Compound A 10 g/ha, without cloquintocet-mexyl safener); 80% in assay [8]; 0% in assay [8] (setting [11]); 0% in [9]; 65% in assay [10] (BRSNW, Compound A 10 g/ha, without cloquintocet-mexyl safener).
